Measured values from patent US8076449B2, “Therapeutic agents of colivelin for neurodegenerative diseases” (Tomohiro Chiba, priority 2004, dated 2011).
Ends that are not written are not given here.

Key:
[1] = tested on: F11 cells transformed with M146L-PS1; settings: as already reported; cited from earlier work
[2] = tested on: CD-1 mice icv-administered with Aβ (25-35); test: Y-maze spatial working memory impairment induced by Aβ (25-35), icv administration; format: in vivo, mouse; settings: 1 nmol colivelin icv, 10 nmol Aβ (25-35) icv, 3 weeks after Aβ
Method: The icv administration of Aβ peptides has been reported to induce spatial working memory impairment. […] In this test, the in vivo neuroprotective effect of colivelin on Aβ toxicity was examined.
Male CD-1 mice at 3 months of age were icy-administered once every three weeks with 1 nmol colivelin together with 3 μl of saline or 3 μl of saline alone into the left lateral ventricles. After 1 hour from the first administration of colivelin, 5 μl of saline together with 10 nmol Aβ (25-35) or 5 μl of saline alone was administered to the right lateral ventricles. After 3 weeks from the Aβ peptide administration, each mouse was examined for spatial working memory in a Y-maze. The Y-maze was made of three gray plastic arms (40 cm long, 12 cm high, 3 cm wide at the bottom, and 10 cm wide at the top) connected to each other at angles of 120°. The mice were individually placed at the end of one arm of the Y-maze and allowed to freely explore the arms for 8 minutes. Items examined were (1) frequency of entry into each arm, (2) total arm entry times, (3) spontaneous alternation percentage, and (4) events. The spontaneous alternation percentage was defined as a ratio of the arm choices that differed from the previous two choices (“successful choices”) to total choices during the run (“total entry minus two”, because the first two choices could not be evaluated for success or failure during the run). […]

[3] = tested on: ChAT(+) neurons in the ventral gray column of ALS model mice; test: Immunohistochemical count of ChAT(+) neurons in spinal cord sections from dead ALS model mice; format: in vivo, mouse; settings: spinal cord (L1-3) sections from dead mice
Method: Spinal cord (L1-3) sections from wild-type (n=3, FIG. 9a), control (saline-treated) (n=5, FIG. 9b), ADNF-treated (n=3, FIG. 9c), AGA-C8R-HNG17-treated (n=14, FIG. 9d), or colivelin-treated (n=12, FIG. 9e) mice were immunostained with an anti-ChAT antibody to count ChAT(+) neurons in the ventral gray columns of the spinal cords. The sections were prepared from dead mice. The average number of ChAT(+) neurons per section was compared among the mice (FIG. 9f). Statistical analysis was conducted by one-way ANOVA, followed by Fischer's PLSD test (**p<0.01); and
The immunohistochemical analysis of neuroprotective effect was conducted using ALS model mice (n=12, FIG. 9e) administered with colivelin, in comparison to wild type (n=3, FIG. 9a), control (saline-treated) (n=5, FIG. 9b), A DNF-treated (n=3, FIG. 9c), and AGA-C8R-HNG17-treated (n=14, FIG. 9d) mice. Spinal cord (L1-3) sections from dead mice in each group were immunostained with an anti-ChAT antibody to count ChAT(+) neurons in the ventral gray column (FIG. 9f).

[4] = tested on: ChAT(+) neurons in the ventral gray column of ALS model mice; test: Immunohistochemical count of ChAT(+) neurons in spinal cord sections from 120-day-old ALS model mice; format: in vivo, mouse; settings: spinal cord (L1-3) sections from 120-day-old mice
Method: Spinal cord (L1-3) sections from wild-type (n=3, FIG. 10A), control (saline-treated) (n=5, FIG. 10B), ADNF-treated (n=3, FIG. 10C), or colivelin-treated (n=12, FIG. 10D) mice were immunostained with an anti-ChAT antibody to count ChAT(+) neurons in the ventral gray column. The sections were prepared from 120-day-old mice (see FIG. 8d). The average number of ChAT(+) neurons per section was compared among the mice (FIG. 10E). Statistical analysis was conducted by one-way ANOVA, followed by Fischer's PLSD test (**p<0.01; *p<0.05).
The immunohistochemical analysis of neuroprotective effect was conducted using ALS model mice (n=12, FIG. 10D) administered with colivelin, in comparison to wild type (n=3, FIG. 10A), control (saline-treated) (n=5, FIG. 10B), and ADNF-treated (n=3, FIG. 10C) mice. Spinal cord (L1-3) sections from the mice in each group were immunostained with an anti-ChAT antibody to count ChAT(+) neurons in the ventral gray column (FIG. 9f). The sections were prepared from 120-day-old mice with motor function increased by colivelin and ADNF (see FIG. 8d)

| Sequence | suppression of cell death caused by M146L-PS1 [1] | spontaneous alternation percentage (SA %) in Y-maze [2] [%] | number of ChAT(+) neurons per section in the spinal cord [3] | number of ChAT(+) neurons per section in the spinal cord [4] |
| --- | --- | --- | --- | --- |
| SALLRSIPA [ADNF, reference compound] | does not suppress |  |  |  |
| SALLRSIPAPAGASRLLLLTGEIDLP [colivelin] |  | 70 | approximately 19 | approximately 32 |
